Source: publication PMC4587935, “Structure and Sialyllactose Binding of the Carboxy-Terminal Head Domain of the Fibre from a Siadenovirus, Turkey Adenovirus 3” (PLoS ONE, 2015)

Legend:
[1] = system: avirulent TAdV-3 fibre head; assay: Saturation transfer difference NMR (STD-NMR), avirulent variant; assay type: binding, turkey adenovirus 3 (TAdV-3); details: 1.5 mM ligand, 15 μM protein, phosphate pH 7.7, 298 K
Experimental: (§1) Saturation transfer difference nuclear magnetic resonance spectroscopy (STD-NMR) experiments were performed at 298 K in an AVANCE 500 MHz spectrometer (Bruker, Rivas Vaciamadrid, Spain) equipped with a 5 mm inverse probe head. STD experiments were performed in fully deuterated 10 mM potassium phosphate pH 7.7. Samples contained 1.5 mM of either 3'- or 6'-sialyllactose and 15 μM of either the virulent or the avirulent versions of TAdV-3 fibre head. The protein was saturated on-resonance at 0.5 ppm and off-resonance at 100 ppm with a train of Gaussian-shaped pulses of 50 ms each, totalling an irradiation time of 2 s. A T2 relaxation filter consisting of a 15 ms 5 kHz spin-lock was used to reduce the protein background signals. STD spectra were obtained by subtracting the on-resonance spectra from the off-resonance spectra. STD intensities were measured comparing each STD spectrum with the correspondent off-resonance spectrum and normalizing to the ligand peak receiving the highest degree of saturation (in all cases, the 5''-N-acetyl). The resonances of 3'- or 6'-sialyllactose were assigned by standard procedures (^1H-^1H TOCSY 70 ms, ^1H-^1H ROESY 600 ms and phase-sensitive ^1H-^13C HSQC). Data were analyzed with TOPSPIN (Bruker) and figures were made with MESTRENOVA (Mestrelab Research, Santiago de Compostela, Spain).

[2] = system: His-tagged TAdV-3 fibre head protein; assay: Glycan microarray binding assay; parameters: species or system turkey adenovirus 3 (TAdV-3); details: for fluorescence intensity on glycan microarray: binding threshold approximately 1,600 RFU (five times background); for inhibition of fibre head binding to the glycan microarray: in the presence of 100 mM sugar
Experimental: The proteins were profiled on neoglycoconjugate microarrays to identify potential glycan ligands for TAdV-3 fibre head proteins. The microarrays were constructed as previously described and presented 71 different simple to complex glycans on glycoproteins or attached to protein backbones through linkers (S1 Table). Several viral protein concentrations were titrated in Tris-buffered saline supplemented with Ca^2+ and Mg^2+ ions (TBS; 20 mM Tris-HCl, 100 mM NaCl, 1 mM CaCl2, 1 mM MgCl2, pH 7.2) and with 0.05% Tween 20 (TBS-T). It was determined that 10 μg/ml in TBS-T was the concentration for optimal signal to noise ratio. Similarly, the concentration of the anti-6XHis IgG-CF640R (Sigma Aldrich, Tres Cantos, Spain) monoclonal antibody for detection of viral protein binding was optimized and a 1 in 750 dilution in TBS-T was subsequently used.
Two-step incubations were carried out as previously described with minor modifications. First, the viral proteins were incubated on the microarray slides for 1 h at 23°C and 4 rpm. The microarray slides and gaskets were then separated while submerged under TBS-T, washed 3 times in TBS-T for 2 min each with gentle agitation in a Coplin jar, with a final 2 min wash in TBS. After centrifuging to dry the slides (1,500 rpm, 5 min), all subsequent steps were carried out in the dark. The microarray slides were incubated with the fluorescently labelled anti-6XHis IgG as in the first step, washed and dried by centrifugation and scanned immediately on an Agilent G2505 microarray scanner using the Cy5 channel (633 nm excitation, 80% PMT, 5 mm resolution). All experiments were carried out in triplicate and binding inhibition assays were performed in parallel in the presence of 100 mM galactose and lactose to verify specific binding. Data extraction and analysis was carried out as previously described. Binding was taken as above an experimental threshold of five times the background, which was approximately 1,600 relative fluorescence units (RFU) in this case.

[3] = target: TAdV-3 fibre head (avirulent) (Turkey adenovirus 3, UniProt A0ABF7PFF5); assay: Isothermal titration calorimetry (ITC), avirulent fibre head; assay type: binding, turkey adenovirus 3 (TAdV-3); details: 25°C
Experimental: (§2) Isothermal titration calorimetry (ITC) was performed at 25°C with a Microcal VP-ITC microcalorimeter (GE Healthcare, Madrid, Spain). The proteins were exhaustively dialyzed against the appropriate buffer (10 mM MES-NaOH pH 6.0 or 20 mM Tris-HCl, 100 mM NaCl pH 7.2), and sialyllactose solutions were prepared in the final dialysate. Titrations were performed by stepwise injections of the 3'- or 6'-sialyllactose-containing solution (21–40 mM) into the reaction cell loaded with the protein at concentrations of 78–474 μM. When required, a second set of injections followed the first one after refilling the injection pipette with the same sialyllactose solution. The CONCAT32 (GE Healthcare) program was used to concatenate the raw data of both series. The heat of ligand dilution was determined separately and subtracted from the total heat produced following each injection. Protein concentrations were determined spectrophotometrically at 280 nm using the predicted monomeric molar extinction coefficient (10,095 OD cm^-1 M^-1). Titration data were analyzed with the ORIGIN software (GE Healthcare).

[4] = system: virulent TAdV-3 fibre head; assay: Saturation transfer difference NMR (STD-NMR), virulent variant; assay type: binding, turkey adenovirus 3 (TAdV-3); details: 1.5 mM ligand, 15 μM protein, phosphate pH 7.7, 298 K
Experimental: as §1

[5] = target: T1, TAdV-3 fibre head (virulent) (Turkey adenovirus 3, UniProt Q9YUQ4); assay: Isothermal titration calorimetry (ITC), virulent fibre head; assay type: binding, turkey adenovirus 3 (TAdV-3); details: 25°C
T1 sequence (Q9YUQ4 304-454): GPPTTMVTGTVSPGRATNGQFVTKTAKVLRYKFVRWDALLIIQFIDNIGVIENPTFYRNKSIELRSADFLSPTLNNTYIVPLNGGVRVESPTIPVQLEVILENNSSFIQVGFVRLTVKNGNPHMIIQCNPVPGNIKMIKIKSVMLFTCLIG
Experimental: as §2

[6] = target: TAdV-3 fiber head mutant K421A (avirulent context); details: ITC, 25°C, pH 6.0; n.o. = no binding observed
[7] = target: TAdV-3 fiber head mutant E392A (avirulent context) (Turkey adenovirus 3, UniProt A0ABF7PFF5, E392A); assay: biochemical; assay type: binding, turkey adenovirus 3 (TAdV-3)
[8] = target: TAdV-3 fiber head mutant K439A (avirulent context) (Turkey adenovirus 3, UniProt A0ABF7PFF5, K439A); assay: biochemical; assay type: binding, turkey adenovirus 3 (TAdV-3)
[9] = target: TAdV-3 fiber head mutant R368A (avirulent context) (Turkey adenovirus 3, UniProt A0ABF7PFF5, R368A); assay: biochemical; assay type: binding, turkey adenovirus 3 (TAdV-3)
[10] = target: TAdV-3 fiber head mutant N407A (avirulent context) (Turkey adenovirus 3, UniProt A0ABF7PFF5, N407A); assay: biochemical; assay type: binding, turkey adenovirus 3 (TAdV-3)
[11] = 10 μg/ml protein in TBS-T pH 7.2
[12] = pH 6.0, three independent sites per trimer

Compound	STD-NMR interaction (saturation transfer) [1]	fluorescence intensity on glycan microarray [2, 11]	Kd [3, 12] [mM]	Kd ([3]; pH 7.2) [mM]	STD-NMR interaction (saturation transfer) [4]	Kd [5, 12] [mM]	Kd ([5]; pH 7.2) [mM]	inhibition of fibre head binding to the glycan microarray [2]	other results
CC(=O)NC1C(O)CC(OCC2OC(OC3C(CO)OC(O)C(O)C3O)C(O)C(O)C2O)(C(=O)O)OC1C(O)C(O)CO (stereo not shown) [6'-sialyllactose]	saturation transfer was observed	6,100 RFU	~7	~23	saturation transfer was observed	~20	~28		
CC(=O)NC1C(O)CC(OC2C(O)C(CO)OC(OC3C(CO)OC(O)C(O)C3O)C2O)(C(=O)O)OC1C(O)C(O)CO (stereo not shown) [3'-sialyllactose]	saturation transfer was observed	5,000 RFU	3.64 ± 0.01	~24	saturation transfer was observed	5.5 ± 0.1	~37		Kd [6]: n.o. ^d; Kd [7]: ~20 mM; Kd [8]: 3.2 ± 0.2 mM; - ΔH ([8]; ITC, 25°C, pH 6.0): 3.9 ± 0.1 kcal/mol of sites; - ΔS ([8]; ITC, 25°C, pH 6.0): 1.7 ± 0.2 cal/mol of sites/deg; - ΔH ([3]; pH 6.0): 4.43 ± 0.01 kcal/mol of sites; - ΔS ([3]; pH 6.0): 3.70 ± 0.03 cal/mol of sites/deg; Kd [9]: 3.23 ± 0.03 mM; - ΔH ([9]; ITC, 25°C, pH 6.0): 3.86 ± 0.02 kcal/mol of sites; - ΔS ([9]; ITC, 25°C, pH 6.0): 1.54 ± 0.05 cal/mol of sites/deg; - ΔH ([5]; pH 6.0): 1.83 ± 0.03 kcal/mol of sites; - ΔS ([5]; pH 6.0): -4.19 ± 0.07 cal/mol of sites/deg; Kd [10]: 2.77 ± 0.04 mM; - ΔH ([10]; ITC, 25°C, pH 6.0): 4.66 ± 0.04 kcal/mol of sites; - ΔS ([10]; ITC, 25°C, pH 6.0): 3.9 ± 0.1 cal/mol of sites/deg
O=C[C@H](O)[C@@H](O)[C@H](O)CO [xylose]	no interaction with the proteins could be measured				no interaction with the proteins could be measured				
O=C[C@H](O)[C@@H](O)[C@@H](O)[C@H](O)CO [galactose]								No binding inhibition	
OC[C@H]1O[C@@H](O[C@H]2[C@H](O)[C@@H](O)C(O)O[C@@H]2CO)[C@H](O)[C@@H](O)[C@H]1O (mixture of isomers) [lactose]								No binding inhibition	
transferrin: glycoprotein with 3'- and 6'-sialyl-N-acetyllactosamine terminal structures									binding on glycan microarray (in words) ([2]; 10 μg/ml protein in TBS-T pH 7.2, threshold five times background): did not bind
